Results on three molecules are retold here after publication PMC7728545 (Cell, 2020).

Where two headings read alike, the source gives them in different places.

One data set deals with T1, AbCdnD (Acinetobacter sp. ATCC 27244, UniProt C0VHD2).
T1 sequence (C0VHD2 1-343): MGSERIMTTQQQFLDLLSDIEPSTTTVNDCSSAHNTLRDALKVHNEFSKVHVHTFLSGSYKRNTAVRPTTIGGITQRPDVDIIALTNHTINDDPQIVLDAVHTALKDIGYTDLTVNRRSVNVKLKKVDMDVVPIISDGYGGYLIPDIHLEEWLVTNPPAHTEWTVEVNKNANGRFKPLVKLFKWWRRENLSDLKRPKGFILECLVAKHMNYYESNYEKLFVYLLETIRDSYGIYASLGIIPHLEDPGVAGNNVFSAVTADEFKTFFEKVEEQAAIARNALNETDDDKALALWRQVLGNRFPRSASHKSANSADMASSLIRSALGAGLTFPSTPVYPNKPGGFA
The experiment in a line: cyclic oligonucleotide synthesis. Conditions: K+, Mg2+, Mn2+, pH 9.0-9.4, 37 °C. Format: biochemical.

Another data set addresses EcCdnD (Enterobacter hormaechei, UniProt P0DSP4). Format: biochemical. As to conditions: 10 mM MgCl2, 50 mM CAPSO pH 9.4, 37 °C.
Another data set addresses T2, EcCap4 K74A (Enterobacter cloacae, UniProt P0DUD5 1-499, K74A).
T2 sequence: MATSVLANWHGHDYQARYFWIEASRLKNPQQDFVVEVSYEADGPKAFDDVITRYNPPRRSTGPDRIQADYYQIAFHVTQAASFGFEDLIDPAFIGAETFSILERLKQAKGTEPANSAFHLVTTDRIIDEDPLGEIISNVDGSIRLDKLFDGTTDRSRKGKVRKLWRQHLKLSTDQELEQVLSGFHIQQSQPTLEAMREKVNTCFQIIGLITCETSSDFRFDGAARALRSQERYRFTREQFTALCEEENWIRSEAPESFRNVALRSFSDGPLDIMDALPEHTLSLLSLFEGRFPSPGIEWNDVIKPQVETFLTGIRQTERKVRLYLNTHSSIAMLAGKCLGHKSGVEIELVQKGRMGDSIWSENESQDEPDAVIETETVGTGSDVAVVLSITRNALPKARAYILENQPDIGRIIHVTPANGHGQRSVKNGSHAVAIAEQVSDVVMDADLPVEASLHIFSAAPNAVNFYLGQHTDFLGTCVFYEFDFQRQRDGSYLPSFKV
The experiment in a line: EMSA.

The target of another data set is AbCap4 K69A (Acinetobacter baumannii, UniProt C0VHC9 1-462, K69A). The experiment in a line: EMSA. Background: In EMSA bound probe runs differently from free probe, usually more slowly.

As to `Nc1ncnc2c1ncn2[C@@H]1O[C@H](COP(=O)(O)OP(=O)(O)OP(=O)(O)O)[C@@H](O)[C@H]1O` [ATP], the “cyclic oligonucleotide synthesis; AbCap4 activation, TLC, HPLC” value at AbCdnD was “ATP is necessary and sufficient to allow AbCdnD to synthesize the activating nucleotide second messenger”. In addition, on EcCdnD (co-substrate GTP, labelled compound), the “TLC with 32P-label” value is given as “EcCdnD: ATP, GTP”.

Consider `Nc1nc2c(ncn2[C@@H]2O[C@H](COP(=O)(O)OP(=O)(O)OP(=O)(O)O)[C@@H](O)[C@H]2O)c(=O)[nH]1` [GTP], for which the “TLC with 32P-label” value at EcCdnD (co-substrate ATP) is reported as “EcCdnD: ATP, GTP”.

B1: DNA45 (45 bp DNA) (dsDNA)
DNA 1: TACAGATCTACTAGTGATCTATGACTGATCTGTACATGATCTACA
DNA 2: TGTAGATCATGTACAGATCAGTCATAGATCACTAGTAGATCTGTA
For the molecule B1, the binding result with EcCap4 K74A and with AbCap4 K69A was “binds” in each case.
